Patent publication US6905852B1, “Herbicide-resistant protoporphyrinogen oxidase isolated from Nicotiana tabacum” (Nihon Nohyaku Co., Ltd., priority 1997, dated 2005)

Key:
[1] = target: T1, protoporphyrinogen oxidase extracted from ETR-245 (Nicotiana tabacum, UniProt O24163, A231V); assay: Protoporphyrinogen oxidase activity of crude enzyme preparation; type: biochemical
T1 construct: from tissue; host or cells: tobacco callus, herbicide-tolerant cell line ETR-245; crude particulate fraction
Procedure: (§1) Using the same procedures described in Nicolaus, B. et al. (1993) in “Target Assay for Modern Herbicide and Related Phytotoxic Compound” Lewis Publishers, pp. 35-41, five volume of extraction buffer (50 mM Tris-HCl (pH 7.5), 0.5 M sucrose, 0.2% BSA, 1 mM EDTA) was added to callus which was cultured in MS solid medium for one month, and homogenized. After filtration with gauze, filtrate was centrifuged with 10,000×g at 4° C. for 5 minutes. Thus obtained precipitate was suspended with 25 ml of ethanol buffer, centrifuged with 150×g at 4° C. for 2 minutes. Thus obtained supernatant was centrifuged with 4,000×g at 4° C. for 15 minutes, and the precipitate was dissolved with 2 ml of 20% glycerol. The protein amount in the obtained crude enzyme preparation was measured with the protein measuring kit (manufactured by Bio-Rad Co., Ltd.).
(§2) The powder of sodium amalgam was prpared as follows. Into a round flask of 500 ml volume, 13 g of mercury and 0.5 g of thin-layer metal sodium were added, and equilibrated with nitrogen gas for 5 minutes, and it was shaked for 5 minutesthen. […] of protoporphyrin IX was dissolved into 10 mM KOH containing 15 ml of 20% ethanol, incubated at 4° C. To 4 ml of the protoporphyrin IX solution, equal amount of reaction mixture (0.1 M MES, 50 mM ascorbic acid) was added, and 16 mg of sodium amalgam freshly prepared was added, and shaken vigorously under nitrogen gas in a dark. The reaction mixture was filtered with a three-layer glass filter in a dark, and diluted 2.5 times with 0.1 M MES (pH4.5), and divided into 1 ml each in a light-shielded test tube and stored at −80° C.
(§3) 3 ml of reaction buffer (100 mM Tris-HCl (pH 7.6), 1 mM EDTA, 5 mM DTT, 0.03% Tween 80) were added to a cell of a fluorescence spectrophotometer, then, the crude enzyme prparation was added at the final concentration of 0.1 mg protein/ml, and it was heated gradually to room temperature. After heating, protoporphyrinogen IX was added at the final concentration of 2 μM, and the gaseous phase was replaced with nitrogen gas, and a reaction was started. Fluorescence was monitored with a spectrophotometer for 30 minutes starting 10 minutes after the start of the reaction, and enzyme activity was measured (Ex:405 nm,Em:631.5 nm).
(§4) Activity of protoporphyrinogen oxidase in crude enzyme preparation which was extracted from a sensitive tobacco and ETR-245 and the extent of inhibition by compound A were compared (Table 4). As a result, activity of the crude enzyme preparation derived from the sensitive strain was 2.39 units, and the activity of the crude enzyme liquid derived from ETR-245 strain was 2.85 units, and there was no large difference between the activities. […] Incidentally, since the reaction mixture became turbidat the concentration of more than 5,000 nM, it was impossible to measure the fluoroescence. From the above results, the resistant mechanism in ETR-245 to the photobleaching herbicide could be thought that the some mutations in the structure of the enzyme occurred, and was not over production of protoporphyrinogen oxidase which was a target enzyme of photobleaching herbicide.

[2] = target: T2, protoporphyrinogen oxidase extracted from the sensitive cell line (Nicotiana tabacum, UniProt O24163, A174P/A191P/T382S); assay: as above; type: biochemical
T2 construct: from tissue; host or cells: tobacco callus, herbicide-sensitive cell line; crude particulate fraction
T2 sequence (O24163 51-548 A174P/A191P/T382S): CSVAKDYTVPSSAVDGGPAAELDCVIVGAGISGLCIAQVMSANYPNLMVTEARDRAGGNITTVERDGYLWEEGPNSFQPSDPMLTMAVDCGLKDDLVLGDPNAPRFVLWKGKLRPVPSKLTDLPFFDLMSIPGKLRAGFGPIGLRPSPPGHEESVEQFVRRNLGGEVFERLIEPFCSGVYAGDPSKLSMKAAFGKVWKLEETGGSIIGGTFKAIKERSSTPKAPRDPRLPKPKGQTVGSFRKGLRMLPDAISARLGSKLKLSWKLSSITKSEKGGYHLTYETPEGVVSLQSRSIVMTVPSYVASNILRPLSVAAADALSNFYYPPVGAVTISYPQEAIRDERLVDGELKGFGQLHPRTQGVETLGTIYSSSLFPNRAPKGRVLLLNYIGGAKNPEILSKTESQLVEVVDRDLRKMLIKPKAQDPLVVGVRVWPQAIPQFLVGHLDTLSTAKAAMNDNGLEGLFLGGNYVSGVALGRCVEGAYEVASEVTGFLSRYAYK
Procedure: as §1, §2, §3, §4

[3] = target: T3, E. coli SASX38 strain having pBAtPX-RC with Arabidopsis thaliana resistant type protoporphyrinogen oxidase cDNA (Arabidopsis thaliana, UniProt P55826, A220V); assay: Growth inhibition of E. coli SASX38 (liquid culture with shaking); type: cell-based
T3 construct: expressed in transfected cells; host or cells: E. coli SASX38 (hemG-deficient) carrying pBAtPX-RC (pBluescript SK(-))
T3 sequence (P55826 35-537 A220V): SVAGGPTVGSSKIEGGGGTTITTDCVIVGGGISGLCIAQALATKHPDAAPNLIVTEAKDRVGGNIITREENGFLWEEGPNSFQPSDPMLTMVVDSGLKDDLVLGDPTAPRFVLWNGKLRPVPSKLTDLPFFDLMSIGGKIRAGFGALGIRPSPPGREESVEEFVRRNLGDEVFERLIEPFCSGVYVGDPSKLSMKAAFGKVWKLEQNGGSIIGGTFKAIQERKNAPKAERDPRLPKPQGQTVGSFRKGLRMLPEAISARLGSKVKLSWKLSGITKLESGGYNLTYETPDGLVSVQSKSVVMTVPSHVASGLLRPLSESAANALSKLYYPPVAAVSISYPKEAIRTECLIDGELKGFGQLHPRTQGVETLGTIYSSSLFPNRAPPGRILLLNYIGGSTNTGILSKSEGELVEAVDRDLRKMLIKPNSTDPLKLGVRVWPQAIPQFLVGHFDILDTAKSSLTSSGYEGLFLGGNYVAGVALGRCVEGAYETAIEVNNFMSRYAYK
Procedure: (§5) The E. coli SASX38 strain containing either of the above-described two kinds of plasmid was cultured with shaking in LB liquid medium containing 50 μg/ml of ampicillin at 28° C. for overnight.

[4] = target: T4, E. coli SASX38 strain having pCR-HC with tobacco wild type protoporphyrinogen oxidase cDNA (Nicotiana tabacum, UniProt O24163); assay: as above; type: cell-based; settings: E. coli containing pCR-HC; read-out: IC50, growth of E. coli inhibited by 50%
T4 construct: expressed in transfected cells; host or cells: E. coli SASX38 (hemG-deficient) carrying pCR-HC
T4 sequence (O24163 51-548): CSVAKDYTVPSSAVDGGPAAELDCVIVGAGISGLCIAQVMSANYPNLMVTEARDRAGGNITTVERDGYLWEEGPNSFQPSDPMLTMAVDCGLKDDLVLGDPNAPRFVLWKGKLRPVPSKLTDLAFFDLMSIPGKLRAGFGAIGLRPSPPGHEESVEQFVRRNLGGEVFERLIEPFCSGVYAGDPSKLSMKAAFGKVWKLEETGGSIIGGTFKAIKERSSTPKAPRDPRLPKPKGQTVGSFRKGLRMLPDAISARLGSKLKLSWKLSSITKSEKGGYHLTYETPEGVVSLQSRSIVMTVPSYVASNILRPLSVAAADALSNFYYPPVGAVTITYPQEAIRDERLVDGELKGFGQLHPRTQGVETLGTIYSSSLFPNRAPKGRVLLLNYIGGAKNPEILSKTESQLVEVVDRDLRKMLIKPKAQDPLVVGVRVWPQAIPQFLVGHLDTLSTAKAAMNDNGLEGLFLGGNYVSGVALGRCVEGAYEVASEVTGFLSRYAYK
Procedure: as §5

[5] = target: T5, E. coli SASX38 strain having pCR-RC with tobacco resistant type protoporphyrinogen oxidase gene (Nicotiana tabacum, UniProt O24163, A174P/A191P/A231V/T382S); assay: as above; type: cell-based
T5 construct: expressed in transfected cells; host or cells: E. coli SASX38 (hemG-deficient) carrying pCR-RC
T5 sequence (O24163 whole entry A174P/A191P/A231V/T382S): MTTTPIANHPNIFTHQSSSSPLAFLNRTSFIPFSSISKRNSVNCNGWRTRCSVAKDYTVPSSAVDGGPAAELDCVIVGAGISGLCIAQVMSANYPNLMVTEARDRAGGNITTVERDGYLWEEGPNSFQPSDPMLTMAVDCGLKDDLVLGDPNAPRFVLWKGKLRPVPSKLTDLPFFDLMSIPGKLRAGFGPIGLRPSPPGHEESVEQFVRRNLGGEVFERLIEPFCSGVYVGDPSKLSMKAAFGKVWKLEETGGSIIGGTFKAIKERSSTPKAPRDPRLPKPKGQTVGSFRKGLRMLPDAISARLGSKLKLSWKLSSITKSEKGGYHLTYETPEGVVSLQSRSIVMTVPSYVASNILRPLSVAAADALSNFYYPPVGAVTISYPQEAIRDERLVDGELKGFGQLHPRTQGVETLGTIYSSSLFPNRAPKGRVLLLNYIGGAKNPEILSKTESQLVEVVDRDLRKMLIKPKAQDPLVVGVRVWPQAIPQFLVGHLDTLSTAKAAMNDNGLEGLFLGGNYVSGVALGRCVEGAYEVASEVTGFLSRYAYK
Procedure: as §5

[6] = system: E. coli SASX38 strain having pCR-RC with tobacco resistant type protoporphyrinogen oxidase gene; assay: as above; type: cell-based, Nicotiana tabacum; settings: tobacco
Procedure: as §5

T1 sequence (O24163 51-548 A231V): as the sequence (O24163 51-548 A174P/A191P/T382S) above, with P124A, P141A, A181V, S332T counted along it

## CCOC(=O)COc1cc(-c2nn(C)c(OC(F)F)c2Cl)c(F)cc1Cl [Compound A, ethyl 2-chloro-5-(4-chloro-5-difluoromethoxy-1-methyl-1H-pyrazol-3-yl)-4-fluorophenoxyacetate]
[1]; ETR-245, 10 nM, 1 unit = 1 nM protoporphyrin IX/min/mg protein
  Enzyme activity(unit): 3.59 unit
[1]; ETR-245, 40 nM
  Enzyme activity(unit): 4.41 unit
[1]; ETR-245, 100 nM
  Enzyme activity(unit): 2.21 unit
[1]; ETR-245, 500 nM
  Enzyme activity(unit): 3.49 unit
[1]; ETR-245, 1,000 nM
  Enzyme activity(unit): 2.85 unit
[1]; ETR-245, 2,400 nM
  Enzyme activity(unit): 2.48 unit
[1]; ETR-245, 5,000 nM
  Enzyme activity(unit): 1.56 unit
[1]; IC50 value (nM), crude enzyme from ETR-245
  IC50: ≥ 5000 nM
[1]; ratio of IC50 values
  resistance at enzyme level (ETR-245 vs sensitive): more than 100 times
[2]
  IC50: 48 nM
[2]; Sensitive, 10 nM, 1 unit = 1 nM protoporphyrin IX/min/mg protein
  Enzyme activity(unit): 4.32 unit
[2]; Sensitive, 20 nM
  Enzyme activity(unit): 3.62 unit
[2]; Sensitive, 40 nM
  Enzyme activity(unit): 1.84 unit
[2]; Sensitive, 100 nM
  Enzyme activity(unit): 0.00 unit
[2]; Sensitive, 500 nM
  Enzyme activity(unit): 0.00 unit
[2]; Sensitive, 1,000 nM
  Enzyme activity(unit): 0.00 unit
[2]; Sensitive, 2,400 nM
  Enzyme activity(unit): 0.00 unit
[2]; Sensitive, 5,000 nM
  Enzyme activity(unit): 0.00 unit
[3]
  IC50: 1500 nM
[3]; Arabidopsis thaliana
  R/S ratio (IC50 value of the resistant type/IC50 value of the wild type): about 300
[4]
  IC50: ~2.5 nM
[5]
  IC50: ≥ 10 µM
[6]
  R/S ratio (IC50 value of a resistant type/IC50 value in a wild type): over 4,000
